The results in this text go back to ChEMBL document CHEMBL5528048, “Discovery of Novel Potent and Fast BTK PROTACs for the Treatment of Osteoclasts-Related Inflammatory Diseases” (J Med Chem, 2024).

Active and inactive are the calls of the source. The rule behind the calls is not given here.

The target of experiment [1] is T1, Protein cereblon/Tyrosine-protein kinase BTK (Homo sapiens, UniProt Q06187+Q96SW2). In words: PROTAC activity at BTK/CRBN in human MINO cells assessed as BTK protein degradation measured for 4 hrs by Western blotting analysis. In kind it is cell-based. (Immunoblotting shows a protein as a band on a membrane.)
Target sequence in this assay (Q06187 whole entry): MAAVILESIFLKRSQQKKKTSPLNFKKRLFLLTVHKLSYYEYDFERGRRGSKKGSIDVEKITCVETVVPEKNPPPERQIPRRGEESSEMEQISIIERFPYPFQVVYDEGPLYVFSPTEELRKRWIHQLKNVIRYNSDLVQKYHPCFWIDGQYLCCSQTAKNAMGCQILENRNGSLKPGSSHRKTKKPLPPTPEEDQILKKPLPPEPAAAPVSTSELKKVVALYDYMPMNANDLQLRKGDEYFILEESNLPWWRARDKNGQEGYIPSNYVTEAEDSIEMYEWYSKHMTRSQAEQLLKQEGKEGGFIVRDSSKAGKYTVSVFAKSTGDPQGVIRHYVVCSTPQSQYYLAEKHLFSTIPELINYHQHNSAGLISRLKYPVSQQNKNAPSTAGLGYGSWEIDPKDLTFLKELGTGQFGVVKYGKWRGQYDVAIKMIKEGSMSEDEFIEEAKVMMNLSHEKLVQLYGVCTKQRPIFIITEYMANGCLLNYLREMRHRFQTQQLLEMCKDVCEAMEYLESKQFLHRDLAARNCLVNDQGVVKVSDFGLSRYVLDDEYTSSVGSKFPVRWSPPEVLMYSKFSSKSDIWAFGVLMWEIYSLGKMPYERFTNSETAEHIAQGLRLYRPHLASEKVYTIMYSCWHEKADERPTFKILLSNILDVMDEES
Target sequence in this assay (Q96SW2 whole entry): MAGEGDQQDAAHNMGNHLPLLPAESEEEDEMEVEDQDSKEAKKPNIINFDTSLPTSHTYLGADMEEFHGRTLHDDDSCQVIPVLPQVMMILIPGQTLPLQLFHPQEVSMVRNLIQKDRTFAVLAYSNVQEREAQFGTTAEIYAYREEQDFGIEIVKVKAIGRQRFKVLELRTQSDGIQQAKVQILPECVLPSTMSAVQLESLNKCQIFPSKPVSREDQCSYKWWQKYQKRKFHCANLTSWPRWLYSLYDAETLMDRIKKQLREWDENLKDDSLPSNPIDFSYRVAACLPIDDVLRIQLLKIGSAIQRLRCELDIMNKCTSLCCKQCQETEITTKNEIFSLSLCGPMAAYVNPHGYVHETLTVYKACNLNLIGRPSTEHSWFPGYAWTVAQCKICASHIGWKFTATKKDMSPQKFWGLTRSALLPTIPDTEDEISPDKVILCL
The target in experiment [2] is T1, Protein cereblon/Tyrosine-protein kinase BTK. In words: PROTAC activity at BTK/CRBN in human MINO cells assessed as BTK protein degradation half life at 20 nM by Western blotting analysis. The class given is cell-based.
Target sequence in this assay (Q06187 2-659 limits assumed): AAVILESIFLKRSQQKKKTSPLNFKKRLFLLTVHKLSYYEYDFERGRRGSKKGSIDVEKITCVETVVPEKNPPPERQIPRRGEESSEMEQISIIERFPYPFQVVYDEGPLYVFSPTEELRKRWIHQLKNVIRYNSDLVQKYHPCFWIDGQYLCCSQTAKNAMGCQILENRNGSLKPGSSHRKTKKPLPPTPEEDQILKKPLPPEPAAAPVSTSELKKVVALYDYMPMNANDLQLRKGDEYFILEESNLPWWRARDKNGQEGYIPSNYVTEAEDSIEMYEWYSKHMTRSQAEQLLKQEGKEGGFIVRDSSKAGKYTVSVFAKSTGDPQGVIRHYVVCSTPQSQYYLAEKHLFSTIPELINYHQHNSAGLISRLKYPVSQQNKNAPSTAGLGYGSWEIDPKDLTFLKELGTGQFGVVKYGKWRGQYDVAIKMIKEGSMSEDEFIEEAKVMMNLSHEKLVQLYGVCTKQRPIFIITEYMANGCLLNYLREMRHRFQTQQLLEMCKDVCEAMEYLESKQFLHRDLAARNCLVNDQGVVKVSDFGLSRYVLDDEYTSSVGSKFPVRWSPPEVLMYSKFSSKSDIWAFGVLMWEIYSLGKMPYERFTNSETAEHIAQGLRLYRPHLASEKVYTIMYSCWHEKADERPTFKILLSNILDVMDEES
Target sequence in this assay (Q96SW2 whole entry partner): as the sequence (Q96SW2 whole entry) above
Experiment [3] has the same target. Kind of experiment: PROTAC activity at BTK/CRBN in human MINO cells assessed as BTK protein degradation at 100 nM measured after 24 hrs by Western blotting analysis relative to control. In kind it is cell-based.
Target sequence in this assay (Q06187 2-659 limits assumed): as the sequence (Q06187 2-659 limits assumed) above
Target sequence in this assay (Q96SW2 whole entry partner): as the sequence (Q96SW2 whole entry) above
Experiment [4] has the same target. In words: PROTAC activity at BTK/CRBN in human MINO cells assessed as BTK protein degradation measured for 24 hrs by Western blotting analysis. The class given is cell-based.
Target sequence in this assay (Q06187 whole entry): as the sequence (Q06187 whole entry) above
Target sequence in this assay (Q96SW2 whole entry): as the sequence (Q96SW2 whole entry) above
Experiment [5] has the same target. In words: PROTAC activity at BTK/CRBN in human MINO cells assessed as BTK protein degradation at 20 nM measured after 48 hrs by Western blotting analysis. In kind it is cell-based.
Target sequence in this assay (Q06187 2-659 limits assumed): as the sequence (Q06187 2-659 limits assumed) above
Target sequence in this assay (Q96SW2 whole entry partner): as the sequence (Q96SW2 whole entry) above
Experiment [6] shares this target. In words: Binding affinity to BTK/CRBN (unknown origin) assessed as ternary complex formation by measuring peak concentration measured after 60 mins incubation by HTRF assay.
Target sequence in this assay (Q06187 2-659 limits assumed): as the sequence (Q06187 2-659 limits assumed) above
Target sequence in this assay (Q96SW2 whole entry partner): as the sequence (Q96SW2 whole entry) above
Experiment [7] shares this target. In words: Binding affinity to BTK/CRBN (unknown origin) assessed as ternary complex formation by measuring peak HTRF ratio at wavelength 665/620 nm measured after 60 mins incubation by HTRF assay. (Time-resolved FRET reads energy transfer from a long-lived donor to a nearby acceptor.)
Target sequence in this assay (Q06187 2-659 limits assumed): as the sequence (Q06187 2-659 limits assumed) above
Target sequence in this assay (Q96SW2 whole entry partner): as the sequence (Q96SW2 whole entry) above
Experiment [8] shares this target. In words: Binding affinity to BTK/CRBN (unknown origin) assessed as ternary complex formation measured after 60 mins incubation by HTRF assay.
Target sequence in this assay (Q06187 whole entry): as the sequence (Q06187 whole entry) above
Target sequence in this assay (Q96SW2 whole entry): as the sequence (Q96SW2 whole entry) above
Experiment [9] shares this target. Kind of experiment: PROTAC activity at BTK/CRBN in human MINO cells assessed as BTK protein degradation at 20 nM measured after 24 hrs by Western blotting analysis relative to control. In kind it is cell-based.
Target sequence in this assay (Q06187 2-659 limits assumed): as the sequence (Q06187 2-659 limits assumed) above
Target sequence in this assay (Q96SW2 whole entry partner): as the sequence (Q96SW2 whole entry) above
In experiment [10] the target is T2, Tyrosine-protein kinase BTK (Homo sapiens, UniProt Q06187). Kind of experiment: Binding affinity to BTK (unknown origin) assessed as inhibition constant measured after 60 mins incubation by microtiter-plate reader.
T2 sequence (Q06187 whole entry): as the sequence (Q06187 whole entry) above
Experiment [11] addresses T1, Protein cereblon/Tyrosine-protein kinase BTK. In words: PROTAC activity at BTK/CRBN in human MINO cells assessed as BTK protein degradation by measuring onset time activity at 20 nM by Western blotting analysis. In kind it is cell-based.
For experiment [12], the target named is T2, Tyrosine-protein kinase BTK. Kind of experiment: Inhibition of BTK (unknown origin) measured after 60 mins incubation by microtiter-plate reader.
For a further experiment, the target named is Protein cereblon (Homo sapiens, UniProt Q96SW2). Kind of experiment: Inhibition of CRBN (unknown origin) measured after 60 mins incubation by BMG reader.
Sequence of Protein cereblon (Q96SW2 whole entry): as the sequence (Q96SW2 whole entry) above
The target of experiment [13] is T1, Protein cereblon/Tyrosine-protein kinase BTK. In words: PROTAC activity at BTK/CRBN in human MINO cells assessed as BTK protein degradation at 20 nM by Western blotting analysis. The class given is cell-based. Particulars: time lower 2.0 hrs, time upper […], TDE = time-dependent effect.

As for `Nc1ncnc2c1c(-c1ccc(Oc3ccccc3)cc1)nn2C1CCN(C(=O)CN2CCN(CC3CN(c4ccc5c(c4)C(=O)N(C4CCC(=O)NC4=O)C5=O)C3)CC2)CC1` (centres undefined), the DC50 – broadly, the midpoint of the concentration-degradation curve – in [1] was 18.9 nM; in experiment [4], 7.07 nM. Further, the T1/2 in experiment [2] stood at 1.51 h. The Activity in experiment [3] is 99%; in experiment [6], 37 nM; in [9], 95%; in experiment [13] it was “Tde”. Besides, the result in experiment [5] was Active. Also, the Ratio in experiment [7] came to 13.1. Further, the EC50 – broadly, the concentration giving half of the maximal effect – in experiment [8] amounted to 2.74 nM. The inhibition constant Ki – broadly, a dissociation constant, usually derived from enzyme kinetics or from competition with a known ligand – in experiment [10] amounted to 50.3 nM. For the same compound, the TIME in experiment [11] was below 1 h. In addition, the IC50 (in general, the concentration at which inhibition is half-maximal) in experiment [12] stood at 95.5 nM; on Protein cereblon, 285 nM.
